# Assay results reported in patent US11939403B2, “Peptide-peptoid scaffolds” (The Regents of the University of California, priority 2020, dated 2024).
# Several values for one entry are separate records, joined by “and”; a condition that tells them apart may be missing. Equal entries are not always repeated. Where two headings read alike, the source gives them in different places. Marks after values point to notes of the source that are not given here. Square brackets hold non-standard residues; d marks the D form. Peptide text beside a SMILES is read from it. Gly(N-CH2-oxan-4-yl) = O=C(O)CNCC1CCOCC1; NCyclohexylmethylGly = O=C(O)CNCC1CCCCC1; NMeL = CN[C@@H](CC(C)C)C(=O)O; NMeA = CN[C@@H](C)C(=O)O; NEtG = CCNCC(=O)O
# Legend:
# Microsomal stability = format: in vitro ADME; settings: remaining rate after 30 min of incubation with pooled liver microsomes (0.1 mg/mL, rats); for remaining at 0.5 h: rat
# [1] = PAMPA permeability of pure compounds under sink conditions; format: in vitro ADME; settings: detergents in donor and acceptor wells (sink conditions); for Papp: PAMPA, read-out: PAMPA Perm.
# Method: PAMPA permeability studies on these six pure compounds were performed initially under the same conditions as those used in the original library screen, using a concentration of 1 μM in the donor well based on the estimated concentration of each compound in the original library. […] Without being bound by theory, it was hypothesized that the pure compounds were precipitating in the donor well or adhering to the walls of the apparatus, and that as mixtures they could act as pseudo-detergents (or mutual blocking agents) to help prevent escape from solution (such as through aggregation or adsorption). Therefore, the PAMPA permeabilities of the pure compounds using detergents in the donor and acceptor wells as “sink” conditions were re-investigated. Using these conditions, the permeability trends were similar to those observed in the Libraries. […] The PAMPA permeabilities of the scaffold A compounds were high (large) across the entire A Log P range, whereas the permeabilities of scaffold B compounds trended upward (greater) along with A Log P.
# in vitro = settings: dog, MDCK, MDCK Perm.
# Method: (§1) Permeabilities were also measured in a Madin-Darby canine kidney (MDCK) permeability assay, in which the passage of the compound through a semipermeable membrane coated with MDCK cells is measured.
# P-gp [2] = target: T1, P-gp (Homo sapiens, UniProt P08183); experiment: in vitro; settings: MDCK, P-gp R-value
# T1 sequence (P08183 whole entry): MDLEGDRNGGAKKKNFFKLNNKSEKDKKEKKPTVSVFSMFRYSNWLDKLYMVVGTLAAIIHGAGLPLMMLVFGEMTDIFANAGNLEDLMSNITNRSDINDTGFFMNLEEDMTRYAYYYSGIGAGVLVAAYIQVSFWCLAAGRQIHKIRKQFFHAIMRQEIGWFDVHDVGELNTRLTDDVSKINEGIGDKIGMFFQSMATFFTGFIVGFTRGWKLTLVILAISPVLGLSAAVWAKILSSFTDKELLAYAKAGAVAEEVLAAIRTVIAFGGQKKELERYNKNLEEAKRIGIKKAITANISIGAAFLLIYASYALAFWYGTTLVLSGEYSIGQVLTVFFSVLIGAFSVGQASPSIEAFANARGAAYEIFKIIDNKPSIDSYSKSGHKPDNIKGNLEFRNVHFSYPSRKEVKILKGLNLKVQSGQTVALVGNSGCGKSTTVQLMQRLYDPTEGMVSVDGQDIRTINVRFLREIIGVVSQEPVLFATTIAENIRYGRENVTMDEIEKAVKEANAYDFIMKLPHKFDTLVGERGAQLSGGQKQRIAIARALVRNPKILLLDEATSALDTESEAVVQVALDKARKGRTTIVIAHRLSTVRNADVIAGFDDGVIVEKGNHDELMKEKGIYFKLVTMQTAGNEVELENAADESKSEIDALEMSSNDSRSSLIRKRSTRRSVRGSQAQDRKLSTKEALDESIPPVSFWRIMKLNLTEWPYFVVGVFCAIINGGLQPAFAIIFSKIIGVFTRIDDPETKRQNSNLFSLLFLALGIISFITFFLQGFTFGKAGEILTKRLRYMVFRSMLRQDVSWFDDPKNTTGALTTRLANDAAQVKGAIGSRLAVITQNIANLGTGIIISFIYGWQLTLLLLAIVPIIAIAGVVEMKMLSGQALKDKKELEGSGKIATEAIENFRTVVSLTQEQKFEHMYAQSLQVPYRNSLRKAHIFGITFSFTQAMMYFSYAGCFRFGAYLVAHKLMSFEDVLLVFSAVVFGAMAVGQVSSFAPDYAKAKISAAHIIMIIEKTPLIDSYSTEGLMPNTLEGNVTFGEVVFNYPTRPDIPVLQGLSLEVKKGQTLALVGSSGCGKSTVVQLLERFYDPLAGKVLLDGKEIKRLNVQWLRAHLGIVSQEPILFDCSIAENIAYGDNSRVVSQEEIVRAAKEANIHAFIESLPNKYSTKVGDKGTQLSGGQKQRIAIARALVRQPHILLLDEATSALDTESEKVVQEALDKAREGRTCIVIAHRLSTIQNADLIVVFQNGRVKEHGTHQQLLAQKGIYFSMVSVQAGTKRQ
# [3] = Aqueous solubility, Japanese Pharmacopoeia Second Fluid (pH 6.8); format: physicochemical; settings: for Aq. Sol.: Japanese Pharmacopoeia Second Fluid (pH 6.8); for solubility: Japanese Pharmacopoeia Second Fluid
# Method: (§2) For each of these six pure compounds, calculated (atomistic) octanol/water partition coefficient (A Log P), aqueous solubility (Aq. Sol), PAMPA and MDCK permeabilities, experimental octanol/water partition coefficient (Log D (oct/w)), P-gp efflux ratios, microsomal stability, and serum protein binding were determined (Table 1 and FIG. 5).
# Serum protein binding = format: in vitro ADME; settings: bound fractions in rat plasma; for fraction unbound: rat, plasma
# P-gp [4] = target: T1, P-gp; settings: MDCK, 10 μM
# [5] = Experimental octanol/water partition coefficient Log D (oct/w); settings: for logD: octanol/water, pH 7.4, LogD (oct/w)
# Method: as §2
# [6] = Oral bioavailability in mice; format: in vivo; settings: for bioavailability / BA: mouse; for bioavailability: po
# Text: Based on their permeabilities in PAMPA and MDCK cells, the in vivo pharmacokinetics of 5 of these 6 pure compound library members were investigated (B03 was not included in the oral PK study, because of its low (small) PAMPA and MDCK permeabilities). […] To test whether metabolism and efflux were the main factors contributing to the low oral bioavailability (BA), mice were pretreated with either the CYP inhibitor […] (ABT), the P-gp inhibitor elacridar (GF120918), or a combination of both the CYP and P-gp inhibitors. […] Combining the inhibitors also produced oral bioavailabilities that reflected the compounds' relative PAMPA permeabilities.
# [7] = PAMPA permeability under standard (library screen) conditions; format: in vitro ADME; settings: pure compounds, donor well concentration 20 μM
# Text: Libraries A and B were synthesized separately as mixtures using solid phase split-pool peptide synthesis, incorporating peptoid side chains as primary amines using the submonomer method. (Zuckermann R N et al. Efficient Method for the Preparation of Peptoids [Oligo(N-Substituted Glycines)] by Submonomer Solid-Phase Synthesis. J Am Chem Soc. (1992) 114, 10646-7. doi: DOI 10.1021/ja00052a076. PubMed PMID: WOS:A1992KD71700076.) The libraries were cleaved, cyclized in solution, and roughly purified using solid phase extraction on C18 media. Parallel artificial membrane permeability assays (PAMPA) were used to measure passive permeabilities; PAMPA permeabilities within each library varied parabolically as a function of A Log P (FIG. 2A).
# PAMPA permeability studies on these six pure compounds were performed initially under the same conditions as those used in the original library screen, […] of each compound in the original library. […] Without being bound by theory, it was hypothesized that the pure compounds were precipitating in the donor well or adhering to the walls of the apparatus, and that as mixtures they could act as pseudo-detergents (or mutual blocking agents) to help prevent escape from solution (such as through aggregation or adsorption). […]
# physchem = settings: pH 7.4, LogD (oct/w)
# Method: as §2
# [8] = pH 7.4
# Method: as §2
# [9] = pH 6.8, pure compounds, values in text, read-out: Aqueous solubility
# [10] = in vivo, mice, oral, no inhibitors, read-out: Oral bioavailability, no inhib.
# [11] = in vivo, mice, oral, pretreatment with 1-aminobenztriazole (CYP inhibitor), read-out: Oral bioavailability, +CYP inhib.
# [12] = in vivo, mice, oral, pretreatment with 1-aminobenztriazole and GF120918, read-out: Oral bioavailability, +CYP inhib. +P-gp inhib.
# [13] = not told, mice, oral, pretreatment with GF120918 (P-gp inhibitor), read-out: Oral bioavailability, +P-gp inhib.
# [14] = pH 6.8, Japanese Pharmacopoeia Second Fluid (pH 6.8), read-out: Aq. Sol.
# [15] = mice, oral, pretreatment with 1-aminobenztriazole and GF120918
# [16] = mice, oral, pretreatment with GF120918 (P-gp inhibitor)
# Method for MDCK cells: as §1
SMILES,remaining at 0.5 h (Microsomal stability) [%],Microsomal Stability (Microsomal stability) [%],Papp [1] [×10⁻⁶ cm/s],PAMPA Perm. [1] [×10⁻⁶ cm/s],Papp (in vitro) [×10⁻⁶ cm/s],efflux ratio at 10 μM (P-gp [2]),Aq. Sol. [3] [mg/mL],"solubility [3, 9] [µg/mL]",fraction unbound (Serum protein binding),P-gp R-value (P-gp [4]),logD [5],"bioavailability [6, 10] [%]","bioavailability [6, 11] [%]","bioavailability [6, 12] [%]","bioavailability [6, 13] [%]","solubility [3, 14] [µg/mL]",Serum Protein Binding (Serum protein binding),MDCK Perm. (MDCK cells; dog) [×10⁻⁶ cm/s],PAMPA membrane transport [7],"Oral bioavailability, +CYP inhib. +P-gp inhib. [6, 15]",further results
CCN1CC(=O)N[C@@H](CC(C)C)C(=O)N(C)[C@@H](C)C(=O)N[C@@H](CC(C)C)C(=O)N2CCC[C@@H]2C(=O)N(CC2CCOCC2)CC(=O)N[C@@H](CC(C)C)C(=O)N(C)[C@@H](C)C(=O)N[C@@H](C)C(=O)N2CCC[C@@H]2C1=O [Compound A03] (cyclo([NEtG]L[NMeA]L[dP][Gly(N-CH2-oxan-4-yl)]L[NMeA]A[dP])),64,64,18,17.2,0.4,6,1.900,1900,0.31,6.4,2.9,1,2,39,4,–,–,–,–,–,"bioavailability ([6]; in vivo, 30 mg/kg, oral dose 30 mg/kg, no inhibitors, based on AUC at 1 mg/kg IV dose, read-out: BA): 11.5%; bioavailability ([6]; in vivo, 100 mg/kg, oral dose 100 mg/kg, no inhibitors, based on AUC at 1 mg/kg IV dose, read-out: BA): 22.1%; bioavailability ([6]; in vivo, 200 mg/kg, oral dose 200 mg/kg, no inhibitors, based on AUC at 1 mg/kg IV dose, read-out: BA): 49.8%; BA ([6]; oral dose 3 mg/kg, no inhibitors, based on AUC at 1 mg/kg IV dose): 1% and 0.99%; BA ([6]; oral dose 200 mg/kg, no inhibitors, based on AUC at 1 mg/kg IV dose): 50%"
CCN1CC(=O)N[C@@H](CC(C)C)C(=O)N(C)[C@@H](C)C(=O)N[C@@H](CC(C)C)C(=O)N2CCC[C@@H]2C(=O)N(CC2CCCCC2)CC(=O)N[C@@H](CC(C)C)C(=O)N(C)[C@@H](C)C(=O)N[C@@H](Cc2ccccc2)C(=O)N2CCC[C@@H]2C1=O [Compound A08] (cyclo(F[dP][NEtG]L[NMeA]L[dP][NCyclohexylmethylGly]L[NMeA])),33,33,18,18.8,25,–,0.070,70,–,–,4.1,5,31,59,7,6.8,99% and >99.8%,24.7,–,–,–
CCN1CC(=O)N[C@@H](CC(C)C)C(=O)N(C)[C@@H](C)C(=O)N[C@@H](CC(C)C)C(=O)N2CCC[C@@H]2C(=O)N(CC2CCOCC2)CC(=O)N[C@@H](CC(C)C)C(=O)N(C)[C@@H](C)C(=O)N[C@@H](Cc2ccccc2)C(=O)N2CCC[C@@H]2C1=O [Compound A09] (cyclo([NEtG]L[NMeA]L[dP][Gly(N-CH2-oxan-4-yl)]L[NMeA]F[dP])),67,67,35,35.7,3.1,43,0.600,600,0.01,46.9,4.1,2,5,> 100,22,640,98%,–,some membrane transport was observed,105^c %,LogD (oct/w) ([5]; pH 7.4): >4.1

# The next lines start with results.
remaining at 0.5 h (Microsomal stability) [%],Microsomal Stability (Microsomal stability) [%],Papp [1] [×10⁻⁶ cm/s],PAMPA Perm. [1] [×10⁻⁶ cm/s],Papp (in vitro) [×10⁻⁶ cm/s],efflux ratio at 10 μM (P-gp [2]),Aq. Sol. [3] [mg/mL],"solubility [3, 9] [µg/mL]",fraction unbound (Serum protein binding),P-gp R-value (P-gp [4]),logD [5],"bioavailability [6, 10] [%]","bioavailability [6, 11] [%]","bioavailability [6, 12] [%]","bioavailability [6, 13] [%]","solubility [3, 14] [µg/mL]",Serum Protein Binding (Serum protein binding),MDCK Perm. (MDCK cells; dog) [×10⁻⁶ cm/s],PAMPA membrane transport [7],"Oral bioavailability, +CYP inhib. +P-gp inhib. [6, 15]",SMILES,further results
94,94,–,–,0.3,1.4,1.900,1900,0.43,–,2.1,–,–,–,–,–,56%,–,–,–,CCN1CC(=O)N[C@@H](CC(C)C)C(=O)N2CCC[C@@H]2C(=O)N(C)[C@@H](CC(C)C)C(=O)N[C@@H](C)C(=O)N(CC2CCOCC2)CC(=O)N[C@@H](C)C(=O)N2CCC[C@@H]2C(=O)N(C)[C@@H](CC(C)C)C(=O)N[C@@H](C)C1=O [Compound B03] (cyclo(A[NEtG]L[dP][NMeL]A[Gly(N-CH2-oxan-4-yl)]A[dP][NMeL])),–
53,53,50,>50,–,–,–,20,–,19.2,–,–,–,> 100,–,–,–,15.3,some membrane transport was observed,101^c %,CCN1CC(=O)N[C@@H](CC(C)C)C(=O)N2CCC[C@@H]2C(=O)N(C)[C@@H](CC(C)C)C(=O)N[C@@H](C)C(=O)N(CC2CCCCC2)CC(=O)N[C@@H](Cc2ccccc2)C(=O)N2CCC[C@@H]2C(=O)N(C)[C@@H](CC(C)C)C(=O)N[C@@H](C)C1=O [Compound B08] (cyclo([NEtG]L[dP][NMeL]A[NCyclohexylmethylGly]F[dP][NMeL]A)),"logD (physchem): > 4.8; LogD (oct/w) [8]: 4.8; MDCK Perm. (MDCK cells): 15 ×10⁻⁶ cm/s; Oral bioavailability, no inhib. ([6]; mice, oral, no inhibitors): 6%; Oral bioavailability, +CYP inhib. ([6]; mice, oral, pretreatment with 1-aminobenztriazole (CYP inhibitor)): 148^c %; Oral bioavailability, +P-gp inhib. [6, 16]: 13%"
90,90,0.7,1.4,–,–,2.200,2200,–,10,–,0.7,1.5,–,–,–,–,0.4,–,14%,CCN1CC(=O)N[C@@H](CC(C)C)C(=O)N2CCC[C@@H]2C(=O)N(C)[C@@H](CC(C)C)C(=O)N[C@@H](C)C(=O)N(CC2CCOCC2)CC(=O)N[C@@H](Cc2ccccc2)C(=O)N2CCC[C@@H]2C(=O)N(C)[C@@H](CC(C)C)C(=O)N[C@@H](C)C1=O [Compound B09] (cyclo(A[NEtG]L[dP][NMeL]A[Gly(N-CH2-oxan-4-yl)]F[dP][NMeL])),"logD (physchem): 3.6; Oral bioavailability, +P-gp inhib. [6, 16]: 3%"
